Assay results: patent publication US9066936B2, “Solid pharmaceutical composition comprising a benzimidazole-7-carboxylate derivative and a pH control agent” (Takeda Pharmaceutical Company Limited, priority 2007, dated 2015)

Legend:
[1] = Solubility of compound A in aqueous solutions with different pHs; assay type: physicochemical; conditions: thermodynamic from solid, 25° C.
Experimental: An excess amount of compound A and an aqueous solution were placed in a test tube, and the mixture was shaken at 25° C. for 30 sec every 5 min. After 30 min, the solution was filtered with a 0.45 μm membrane filter to give a sample. Using the sample, the concentration of compound A was measured under the following HPLC conditions.
detector: ultraviolet absorption photometer,
measurement wavelength: 260 nm
column: YMC-Pack ProC18, 3 μm, inner diameter: 6 mm,
column temperature: 25° C. • mobile phase: 0.05 mol/L phosphate buffer (pH 3.0)/acetonitrile mixed solution (1:1)

[2] = pH of pH control agent dissolved or suspended in water; assay type: physicochemical; conditions: 1% w/v in water at 25° C.
Experimental: Here, the pH of the pH control agent is measured under the following conditions. To be precise, it is a pH of a solution or suspension obtained by dissolving or suspending a pH control agent in water at a concentration of 1% w/v at 25° C.
A pH control agent was dissolved or suspended in water at a concentration of 1% w/v at 25° C., and the resulting solution or suspension was measured for pH.

Row | solubility at 30 min ([1]; aqueous buffer, pH 2.0 Britton Robinson buffer) [µg/mL] | solubility at 30 min ([1]; aqueous buffer, pH 3.0 Britton Robinson buffer) [µg/mL] | solubility at 30 min ([1]; aqueous buffer, pH 4.0 Britton Robinson buffer) [µg/mL] | solubility at 30 min ([1]; aqueous buffer, pH 5.0 Britton Robinson buffer) [µg/mL] | solubility at 30 min ([1]; aqueous buffer, pH 6.0 Britton Robinson buffer) [µg/mL] | solubility at 30 min ([1]; aqueous buffer, pH 7.0 Britton Robinson buffer) [µg/mL] | solubility at 30 min ([1]; simulated gastric fluid, 0.1 mol/L HCl) [µg/mL] | SMILES | pH (25° C.) [2]
1 | < 10 | < 10 | < 10 | < 10 | < 10 | 940 | < 10 | CCOc1nc2cccc(C(=O)OCc3oc(=O)oc3C)c2n1Cc1ccc(-c2ccccc2-c2noc(=O)[nH]2)cc1.[K] [compound A, (5-methyl-2-oxo-1,3-dioxol-4-yl)methyl 2-ethoxy-1-{[2′-(5-oxo-4,5-dihydro-1,2,4-oxadiazol-3-yl)biphenyl-4-yl]methyl}-1H-benzimidazole-7-carboxylate potassium salt] | 
2 |  |  |  |  |  |  |  | O=C([O-])/C=C/C(=O)O.[Na+] [monosodium fumarate] | 3.57
3 |  |  |  |  |  |  |  | O=P([O-])(O)O.[Na+] [sodium dihydrogen phosphate] | 4.56
